Assay results: ChEMBL document CHEMBL5724914, “Linking interpersonal differences in gut microbiota composition and drug biotransformation activity” (2024)

What was measured:
[1] = (§1) The drug is tested on WLS-220 corresponding to human gut metagenome with ENA study accession number: PRJEB37062 and ENA sample accession number: ERS12561769 for biotransformation under anaerobic condition. The drug concentrations were measured over 9 timepoints collected between 0 and 24 hours of incubation by liquid-chromatography-coupled mass spectrometry (LC–MS); details: 2 µM
[2] = as §1, with “Z-016” for “WLS-220”, “mouse” for “human”, “ERS12561815” for “ERS12561769”; details: 2 µM
[3] = as §1, with “WLS-310” for “WLS-220”, “ERS12561785” for “ERS12561769”; details: 2 µM
[4] = human gut metagenome, 24 h, 2 µM
[5] = human gut metagenome, 24 h, 2 µM; remark: listed apart in the source
[6] = as §1, with “Z-018” for “WLS-220”, “pig” for “human”, “ERS12561817” for “ERS12561769”; details: 2 µM
[7] = as §1, with “WLS-170” for “WLS-220”, “ERS12561762” for “ERS12561769”; details: 2 µM
[8] = human gut metagenome, 24 h, 2 µM; remark: listed apart in the source
[9] = human gut metagenome, 24 h, 2 µM; remark: listed apart in the source
[10] = as §1, with “Z-011” for “WLS-220”, “mouse” for “human”, “ERS12561811” for “ERS12561769”; details: 2 µM
[11] = human gut metagenome, 24 h, 2 µM; remark: listed apart in the source
[12] = human gut metagenome, 24 h, 2 µM; remark: listed apart in the source
[13] = as §1, with “Z-002” for “WLS-220”, “rabbit” for “human”, “ERS12561802” for “ERS12561769”; details: 2 µM
[14] = human gut metagenome, 24 h, 2 µM; remark: listed apart in the source
[15] = as §1, with “WLS-039” for “WLS-220”, “ERS12561746” for “ERS12561769”; details: 2 µM
[16] = as §1, with “Z-019” for “WLS-220”, “rat” for “human”, “ERS12561818” for “ERS12561769”; details: 2 µM
[17] = as §1, with “Z-014” for “WLS-220”, “rat” for “human”, “ERS12561814” for “ERS12561769”; details: 2 µM
[18] = human gut metagenome, 24 h, 2 µM; remark: listed apart in the source
[19] = as §1, with “WLS-082” for “WLS-220”, “ERS12561751” for “ERS12561769”; details: 2 µM
[20] = human gut metagenome, 24 h, 2 µM; remark: listed apart in the source
Note: call rule not given here.

Bacterial Biotransformation [1] | Bacterial Biotransformation [2] | Bacterial Biotransformation [3] | Bacterial Biotransformation [4] | Bacterial Biotransformation [5] | Bacterial Biotransformation [6] | Bacterial Biotransformation [7] | Bacterial Biotransformation [8] | Bacterial Biotransformation [9] | Bacterial Biotransformation [10] | Bacterial Biotransformation [11] | Bacterial Biotransformation [12] | Bacterial Biotransformation [13] | Bacterial Biotransformation [14] | Bacterial Biotransformation [15] | Bacterial Biotransformation [16] | Bacterial Biotransformation [17] | Bacterial Biotransformation [18] | Bacterial Biotransformation [19] | Bacterial Biotransformation [20] | SMILES
Compound metabolized | Compound metabolized | Compound metabolized | Compound metabolized | Compound NOT metabolized | Compound metabolized | Compound metabolized | Compound metabolized | Compound metabolized | Compound NOT metabolized | Compound NOT metabolized | Compound metabolized | Compound metabolized | Compound metabolized | Compound metabolized | Compound NOT metabolized | Compound metabolized | Compound metabolized | Compound metabolized | Compound metabolized | CCC(=O)NCC[C@@H]1CCc2ccc3c(c21)CCO3 [RAMELTEON]
Compound NOT metabolized | Compound metabolized | Compound metabolized | Compound NOT metabolized | Compound metabolized | Compound metabolized | Compound NOT metabolized | Compound NOT metabolized | Compound NOT metabolized | Compound metabolized | Compound metabolized | Compound NOT metabolized | Compound metabolized | Compound NOT metabolized | Compound NOT metabolized | Compound metabolized | Compound metabolized | Compound NOT metabolized | Compound metabolized | Compound metabolized | CNC(=C[N+](=O)[O-])NCCSCc1ccc(CN(C)C)o1 [RANITIDINE]
Compound metabolized | Compound NOT metabolized | Compound metabolized | Compound metabolized | Compound metabolized | Compound metabolized | Compound metabolized | Compound NOT metabolized | Compound metabolized | Compound metabolized | Compound metabolized | Compound NOT metabolized | Compound metabolized | Compound NOT metabolized | Compound metabolized | Compound NOT metabolized | Compound NOT metabolized | Compound NOT metabolized | Compound metabolized | Compound NOT metabolized | Nc1nc2ccc(OC(F)(F)F)cc2s1 [RILUZOLE]
Compound metabolized | Compound metabolized | Compound metabolized | Compound metabolized | Compound metabolized | Compound metabolized | Compound metabolized | Compound metabolized | Compound metabolized | Compound metabolized | Compound metabolized | Compound NOT metabolized | Compound metabolized | Compound NOT metabolized | Compound metabolized | Compound NOT metabolized | Compound metabolized | Compound NOT metabolized | Compound metabolized | Compound NOT metabolized | CC(C)c1nc(CN(C)C(=O)N[C@H](C(=O)N[C@@H](Cc2ccccc2)C[C@H](O)[C@H](Cc2ccccc2)NC(=O)OCc2cncs2)C(C)C)cs1 [RITONAVIR]
Compound NOT metabolized | Compound NOT metabolized | Compound NOT metabolized | Compound NOT metabolized | Compound NOT metabolized | Compound NOT metabolized | Compound metabolized | Compound NOT metabolized | Compound NOT metabolized | Compound NOT metabolized | Compound NOT metabolized | Compound NOT metabolized | Compound NOT metabolized | Compound NOT metabolized | Compound NOT metabolized | Compound NOT metabolized | Compound NOT metabolized | Compound NOT metabolized | Compound NOT metabolized | Compound NOT metabolized | CC(C)NCC(O)c1ccc(NS(C)(=O)=O)cc1 (stereo not given) [SOTALOL]
Compound NOT metabolized | Compound NOT metabolized | Compound metabolized | Compound NOT metabolized | Compound NOT metabolized | Compound metabolized | Compound metabolized | Compound NOT metabolized | Compound metabolized | Compound metabolized | Compound NOT metabolized | Compound NOT metabolized | Compound metabolized | Compound NOT metabolized | Compound NOT metabolized | Compound NOT metabolized | Compound NOT metabolized | Compound NOT metabolized | Compound NOT metabolized | Compound NOT metabolized | CCN1CCCC1CNC(=O)c1cc(S(N)(=O)=O)ccc1OC (stereo not given) [SULPIRIDE]
Compound metabolized | Compound NOT metabolized | Compound NOT metabolized | Compound NOT metabolized | Compound NOT metabolized | Compound NOT metabolized | Compound NOT metabolized | Compound NOT metabolized | Compound metabolized | Compound NOT metabolized | Compound NOT metabolized | Compound NOT metabolized | Compound metabolized | Compound NOT metabolized | Compound NOT metabolized | Compound NOT metabolized | Compound NOT metabolized | Compound NOT metabolized | Compound NOT metabolized | Compound NOT metabolized | CNS(=O)(=O)Cc1ccc2[nH]cc(CCN(C)C)c2c1.O=C(O)CCC(=O)O [SUMATRIPTAN SUCCINATE]
Compound NOT metabolized | Compound NOT metabolized | Compound metabolized | Compound metabolized | Compound metabolized | Compound NOT metabolized | Compound metabolized | Compound NOT metabolized | Compound metabolized | Compound NOT metabolized | Compound NOT metabolized | Compound NOT metabolized | Compound metabolized | Compound NOT metabolized | Compound NOT metabolized | Compound NOT metabolized | Compound NOT metabolized | Compound NOT metabolized | Compound NOT metabolized | Compound NOT metabolized | Nc1c2c(nc3ccccc13)CCCC2 [TACRINE]
